Results published in publication PMC10177510, “A Multicenter, Open-Label, Phase I/II Study of FN-1501 in Patients with Advanced Solid Tumors” (Cancers, 2023).

Assay: Phase I/II dose escalation: safety and tolerability (DLT, TEAE)
Format: in vivo
Procedure: This Phase 1/2, FIH, open-label, multi-center, single-arm, dose-escalation study was conducted in pts with histologically or cytologically confirmed advanced solid tumors or R/R AML.
In the absence of worrisome toxicity, the remaining pts could be enrolled and dosed in that cohort. Safety evaluations were performed by investigators, the medical monitor, and the Sponsor. A Safety Monitoring Committee determined dose levels to be administered during dose escalation based on data available from the current and previous dose levels.

CN1CCN(Cc2ccc(NC(=O)c3[nH]ncc3Nc3ncnc4[nH]ccc34)cc2)CC1 [FN-1501]
Dose-Limiting Toxicity (2.5 mg/day, 4 patients): 0
Abdominal pain, patients with event (2.5 mg/day, N = 4): 1
Back pain, patients with event (2.5 mg/day, N = 4): 1
Constipation, patients with event (2.5 mg/day, N = 4): 0
Decreased appetite, patients with event (2.5 mg/day, N = 4): 1
Diarrhea, patients with event (2.5 mg/day, N = 4): 0
Dizziness, patients with event (2.5 mg/day, N = 4): 0
Dyspnea, patients with event (2.5 mg/day, N = 4): 1
Fatigue, Grade ≥ 3 TEAE, n (%) (2.5 mg/day, N = 4): 1 (25)
Fatigue, patients with event (2.5 mg/day, N = 4): 1
Infusion-related reaction, patients with event (2.5 mg/day, N = 4): 0
Nausea, patients with event (2.5 mg/day, N = 4): 1
Oedema peripheral, patients with event (2.5 mg/day, N = 4): 1
Pyrexia, patients with event (2.5 mg/day, N = 4): 0
Total number of TEAEs (2.5 mg/day, N = 4): 20
Total patients with at least 1 TEAE (2.5 mg/day, N = 4): 4
Vomiting, patients with event (2.5 mg/day, N = 4): 1
Dose-Limiting Toxicity (5 mg/day, 3 patients): 0
Abdominal pain, patients with event (5 mg/day, N = 3): 1
Back pain, patients with event (5 mg/day, N = 3): 0
Constipation, patients with event (5 mg/day, N = 3): 1
Decreased appetite, patients with event (5 mg/day, N = 3): 0
Diarrhea, patients with event (5 mg/day, N = 3): 1
Diarrhoea, Grade ≥ 3 TEAE, n (%) (5 mg/day, N = 3): 1
Dizziness, patients with event (5 mg/day, N = 3): 0
Dyspnea, patients with event (5 mg/day, N = 3): 0
Fatigue, patients with event (5 mg/day, N = 3): 1
Infusion-related reaction, patients with event (5 mg/day, N = 3): 1
Nausea, patients with event (5 mg/day, N = 3): 1
Oedema peripheral, patients with event (5 mg/day, N = 3): 1
Pyrexia, patients with event (5 mg/day, N = 3): 1
Small intestinal obstruction, Grade ≥ 3 TEAE, n (%) (5 mg/day, N = 3): 1 (33)
Total number of TEAEs (5 mg/day, N = 3): 23
Total patients with at least 1 TEAE (5 mg/day, N = 3): 3
Vomiting, patients with event (5 mg/day, N = 3): 1
Dose-Limiting Toxicity (10 mg/day, 5 patients): 0
Abdominal pain, patients with event (10 mg/day, N = 5): 0
Back pain, patients with event (10 mg/day, N = 5): 0
Bacterial sepsis, Grade ≥ 3 TEAE, n (%) (10 mg/day, N = 5): 1
Constipation, patients with event (10 mg/day, N = 5): 1
Decreased appetite, patients with event (10 mg/day, N = 5): 0
Delirium, Grade ≥ 3 TEAE, n (%) (10 mg/day, N = 5): 1
Diarrhea, patients with event (10 mg/day, N = 5): 0
Dizziness, patients with event (10 mg/day, N = 5): 0
Dyspnea, patients with event (10 mg/day, N = 5): 1
Fatigue, patients with event (10 mg/day, N = 5): 2
Infusion-related reaction, patients with event (10 mg/day, N = 5): 0
Lung infection, Grade ≥ 3 TEAE, n (%) (10 mg/day, N = 5): 1
Nausea, patients with event (10 mg/day, N = 5): 1
Oedema peripheral, patients with event (10 mg/day, N = 5): 0
Pyrexia, patients with event (10 mg/day, N = 5): 0
Stomatitis, Grade ≥ 3 TEAE, n (%) (10 mg/day, N = 5): 1
Total number of TEAEs (10 mg/day, N = 5): 25
Total patients with at least 1 TEAE (10 mg/day, N = 5): 4
Vomiting, patients with event (10 mg/day, N = 5): 1
Dose-Limiting Toxicity (15 mg/day, 3 patients): 0
Abdominal pain, patients with event (15 mg/day, N = 3): 1
Back pain, patients with event (15 mg/day, N = 3): 1
Catheter site infection, Grade ≥ 3 TEAE, n (%) (15 mg/day, N = 3): 1
Constipation, patients with event (15 mg/day, N = 3): 1
Decreased appetite, patients with event (15 mg/day, N = 3): 0
Diarrhea, patients with event (15 mg/day, N = 3): 2
Dizziness, patients with event (15 mg/day, N = 3): 2
Dyspnea, patients with event (15 mg/day, N = 3): 0
Fatigue, patients with event (15 mg/day, N = 3): 0
Infusion-related reaction, patients with event (15 mg/day, N = 3): 1
Nausea, patients with event (15 mg/day, N = 3): 2
Oedema peripheral, patients with event (15 mg/day, N = 3): 0
Pyrexia, patients with event (15 mg/day, N = 3): 1
Total number of TEAEs (15 mg/day, N = 3): 41
Total patients with at least 1 TEAE (15 mg/day, N = 3): 3
Vascular access complication, Grade ≥ 3 TEAE, n (%) (15 mg/day, N = 3): 1
Vomiting, patients with event (15 mg/day, N = 3): 0
Dose-Limiting Toxicity (22.5 mg/day, 4 patients): 0
Abdominal pain, Grade ≥ 3 TEAE, n (%) (22.5 mg/day, N = 4): 1
Abdominal pain, patients with event (22.5 mg/day, N = 4): 2
Back pain, patients with event (22.5 mg/day, N = 4): 0
Constipation, patients with event (22.5 mg/day, N = 4): 1
Decreased appetite, patients with event (22.5 mg/day, N = 4): 2
Diarrhea, patients with event (22.5 mg/day, N = 4): 0
Dizziness, patients with event (22.5 mg/day, N = 4): 1
Dyspnea, patients with event (22.5 mg/day, N = 4): 1
Fatigue, patients with event (22.5 mg/day, N = 4): 2
Infusion-related reaction, patients with event (22.5 mg/day, N = 4): 0
Nausea, patients with event (22.5 mg/day, N = 4): 1
Oedema peripheral, patients with event (22.5 mg/day, N = 4): 0
Pyrexia, patients with event (22.5 mg/day, N = 4): 1
Total number of TEAEs (22.5 mg/day, N = 4): 26
Total patients with at least 1 TEAE (22.5 mg/day, N = 4): 4
Vomiting, patients with event (22.5 mg/day, N = 4): 1
Dose-Limiting Toxicity (30 mg/day, 3 patients): 0
Abdominal pain, patients with event (30 mg/day, N = 3): 1
Back pain, patients with event (30 mg/day, N = 3): 0
Constipation, patients with event (30 mg/day, N = 3): 0
Decreased appetite, patients with event (30 mg/day, N = 3): 0
Diarrhea, patients with event (30 mg/day, N = 3): 1
Dizziness, patients with event (30 mg/day, N = 3): 0
Dyspnea, patients with event (30 mg/day, N = 3): 0
Fatigue, patients with event (30 mg/day, N = 3): 1
Hyponatraemia, Grade ≥ 3 TEAE, n (%) (30 mg/day, N = 3): 1
Infusion-related reaction, patients with event (30 mg/day, N = 3): 0
Nausea, patients with event (30 mg/day, N = 3): 1
Oedema peripheral, patients with event (30 mg/day, N = 3): 0
Pyrexia, patients with event (30 mg/day, N = 3): 0
Syncope, Grade ≥ 3 TEAE, n (%) (30 mg/day, N = 3): 1 (33)
Total number of TEAEs (30 mg/day, N = 3): 16
Total patients with at least 1 TEAE (30 mg/day, N = 3): 3
Vomiting, patients with event (30 mg/day, N = 3): 0
Dose-Limiting Toxicity (40 mg/day, 4 patients): 0
Abdominal distension, Grade ≥ 3 TEAE, n (%) (40 mg/day, N = 4): 1 (25)
Abdominal pain, patients with event (40 mg/day, N = 4): 0
Back pain, patients with event (40 mg/day, N = 4): 0
Blood alkaline phosphatase increased, Grade ≥ 3 TEAE, n (%) (40 mg/day, N = 4): 1 (25)
Blood bilirubin increased, Grade ≥ 3 TEAE, n (%) (40 mg/day, N = 4): 1 (25)
Constipation, patients with event (40 mg/day, N = 4): 0
Decreased appetite, patients with event (40 mg/day, N = 4): 0
Diarrhea, patients with event (40 mg/day, N = 4): 1
Dizziness, patients with event (40 mg/day, N = 4): 0
Dyspnea, patients with event (40 mg/day, N = 4): 0
Fatigue, patients with event (40 mg/day, N = 4): 1
Hyponatraemia, Grade ≥ 3 TEAE, n (%) (40 mg/day, N = 4): 1
Infusion-related reaction, patients with event (40 mg/day, N = 4): 0
Nausea, patients with event (40 mg/day, N = 4): 0
Oedema peripheral, patients with event (40 mg/day, N = 4): 1
Peritonitis, Grade ≥ 3 TEAE, n (%) (40 mg/day, N = 4): 1 (25)
Pyrexia, patients with event (40 mg/day, N = 4): 1
Total number of TEAEs (40 mg/day, N = 4): 21
Total patients with at least 1 TEAE (40 mg/day, N = 4): 4
Vomiting, patients with event (40 mg/day, N = 4): 1
Dose-Limiting Toxicity (54 mg/day, 3 patients): 0
Abdominal pain, patients with event (54 mg/day, N = 3): 0
Anaemia, Grade ≥ 3 TEAE, n (%) (54 mg/day, N = 3): 1 (33)
Back pain, patients with event (54 mg/day, N = 3): 0
Constipation, patients with event (54 mg/day, N = 3): 0
Decreased appetite, patients with event (54 mg/day, N = 3): 0
Diarrhea, patients with event (54 mg/day, N = 3): 0
Dizziness, patients with event (54 mg/day, N = 3): 0
Dyspnea, patients with event (54 mg/day, N = 3): 0
Fatigue, Grade ≥ 3 TEAE, n (%) (54 mg/day, N = 3): 1 (33)
Fatigue, patients with event (54 mg/day, N = 3): 2
Infusion-related reaction, patients with event (54 mg/day, N = 3): 1
Nausea, patients with event (54 mg/day, N = 3): 0
Oedema peripheral, patients with event (54 mg/day, N = 3): 0
Pyrexia, patients with event (54 mg/day, N = 3): 0
Total number of TEAEs (54 mg/day, N = 3): 12
Total patients with at least 1 TEAE (54 mg/day, N = 3): 3
Vomiting, patients with event (54 mg/day, N = 3): 0
Dose-Limiting Toxicity (72 mg/day, 3 patients): 0
Abdominal pain, patients with event (72 mg/day, N = 3): 1
Back pain, patients with event (72 mg/day, N = 3): 1
Constipation, patients with event (72 mg/day, N = 3): 0
Decreased appetite, patients with event (72 mg/day, N = 3): 0
